Test systems include CCRF-CEM leukemia; DU-145 prostate; EKVX NSCLC; OVCAR-5 ovarian; SF-539 CNS; SNB-19 CNS.
Test in all cases: growth of human tumour cells (NCI), 48 h

Experimental findings from PubChem BioAssay (NCI) are described below.

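Assay format: 96-well plates, 48-hour exposure. The concentration for 50% growth inhibition is given as GI50. TGI: concentration producing complete growth inhibition.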

As to `CC(C)(C)C(=O)O[C@H]1C=C[C@@H](O)[C@@H]2[C@H]1[C@@H]1C=C[C@H]2C1`, the TGI in the test with CCRF-CEM leukemia is more than 100 µM; in the test with DU-145 prostate, more than 100 µM; with EKVX NSCLC it was more than 100 µM; in the test on OVCAR-5 ovarian, 6.42 µM; in the test with SF-539 CNS, 92.9 µM; with SNB-19 CNS, more than 100 µM.

For `Cc1cn([C@@H]2C[C@](C)(CO)N(C)O2)c(=O)[nH]c1=O`, the TGI in the test with CCRF-CEM leukemia, in the test on DU-145 prostate, with EKVX NSCLC, in the test on OVCAR-5 ovarian and in the test with SNB-19 CNS was more than 100 µM in each case.

With `COc1cccc(OC/C(N=Cc2ccncc2)=N/NC(=O)c2ccncc2)c1`, the TGI in the test on CCRF-CEM leukemia, in the test on DU-145 prostate, in the test with EKVX NSCLC, with OVCAR-5 ovarian, in the test on SF-539 CNS and in the test with SNB-19 CNS was more than 100 µM throughout.

With `C=C(C)C(=O)O[C@H]1CC2(CO)O[C@@H]2CC/C(COC(C)=O)=C/C2OC(=O)C(=C)[C@@H]21` (some centres not stated), the TGI with CCRF-CEM leukemia is 39.3 µM; with DU-145 prostate, more than 100 µM; in the test on EKVX NSCLC it was more than 100 µM; with OVCAR-5 ovarian, more than 100 µM; with SF-539 CNS, more than 100 µM; in the test with SNB-19 CNS it was more than 100 µM.

With `CC(=O)OCC1(CNc2nc(N)ncc2C#N)CC(CCc2ccccc2)C1` (configuration not stated), the TGI with CCRF-CEM leukemia, with DU-145 prostate, in the test on EKVX NSCLC, with OVCAR-5 ovarian and in the test on SF-539 CNS was more than 100 µM throughout.

On to `CCCOC1OC(CS(=O)(=O)O)C(OC(C)=O)C(OC(C)=O)C1OC(C)=O` (configuration not stated), for which the TGI in the test with CCRF-CEM leukemia, in the test with DU-145 prostate, in the test with OVCAR-5 ovarian and in the test with SNB-19 CNS was more than 100 µM in each case.

For the compound `Cc1ccc(S(=O)(=O)CC2CCCn3c2c(C#N)c2ccccc23)cc1` (configuration not stated), the TGI in the test with CCRF-CEM leukemia, in the test on DU-145 prostate, in the test on EKVX NSCLC, in the test on OVCAR-5 ovarian, in the test with SF-539 CNS and with SNB-19 CNS was more than 100 µM in each case.

Take `C/C(=N\NC(=O)c1ccncc1)c1cccc(C(F)(F)F)c1`: the TGI in the test with CCRF-CEM leukemia, in the test on DU-145 prostate, with EKVX NSCLC and in the test with SF-539 CNS was more than 10 µM in each case.

Consider `S=c1oc(CCCCCCCCc2nn(CNc3ccc(Cl)cc3)c(=S)o2)nn1CNc1ccc(Cl)cc1`, for which the TGI with DU-145 prostate, in the test with EKVX NSCLC, in the test with OVCAR-5 ovarian and in the test with SNB-19 CNS was more than 100 µM throughout.

`Cc1c(Cl)c(=O)oc2cc(OCC(O)COC(C)C)ccc12` (configuration not stated): the TGI in the test with CCRF-CEM leukemia, in the test with DU-145 prostate, in the test on EKVX NSCLC, in the test with OVCAR-5 ovarian and in the test with SNB-19 CNS was more than 100 µM in each case.

In the case of `CN1C(=O)C(CCO)(C(C)(C)C)c2ccccc21` (configuration not stated), the TGI with CCRF-CEM leukemia, with DU-145 prostate, in the test on EKVX NSCLC, in the test on OVCAR-5 ovarian and with SNB-19 CNS was more than 100 µM throughout.

Consider `Cc1cc2nc3c(N)nn(CCN(C)C)c3nc2cc1C`, for which the TGI with CCRF-CEM leukemia, in the test with DU-145 prostate, in the test with EKVX NSCLC, in the test with OVCAR-5 ovarian, with SF-539 CNS and in the test on SNB-19 CNS was more than 100 µM throughout.

Consider `C/C=C\C(CC(=O)NCCc1c[nH]c2ccccc12)CC(=O)OC` (configuration not stated), for which the TGI in the test on DU-145 prostate, in the test on EKVX NSCLC, in the test on OVCAR-5 ovarian and in the test with SNB-19 CNS was more than 100 µM each time.

In the case of `CCOc1ccccc1N=NC1C(=O)N(C(=O)CC(=O)Nc2ccccc2OC)N=C1C` (configuration not stated), the TGI in the test with CCRF-CEM leukemia was more than 100 µM; in the test on DU-145 prostate it was more than 100 µM; in the test with EKVX NSCLC, 21.8 µM; in the test with OVCAR-5 ovarian, more than 100 µM; in the test with SF-539 CNS, more than 100 µM.

For `Oc1ccc(O)c(Sc2nnc(CCCCCCCCc3nnc(Sc4cc(O)ccc4O)o3)o2)c1`, the TGI in the test on DU-145 prostate, in the test on EKVX NSCLC, in the test on OVCAR-5 ovarian and in the test on SNB-19 CNS was more than 100 µM each time.

As to `COC(C/C=C\C=C\CC/C=C/CC(C)/C=C/C(=C\C(=O)O)CC(=O)O)/C(C)=C\C=C(/C)C(=O)O` (configuration not stated), the TGI in the test on CCRF-CEM leukemia, with DU-145 prostate, in the test with EKVX NSCLC, in the test with OVCAR-5 ovarian and with SNB-19 CNS was more than 100 µM in each case.

For `O=C(c1ccccc1)c1ccc2nc(-c3c(Cl)c(Cl)c(Cl)c(Cl)c3C(=O)Nc3ccco3)[nH]c2c1`, the TGI in the test on CCRF-CEM leukemia, in the test on DU-145 prostate, with EKVX NSCLC, in the test on OVCAR-5 ovarian and with SNB-19 CNS was more than 100 µM each time.

In the case of `COc1ccc(C2C3=CONC3CC3CCCCC32)cc1` (configuration not stated), the TGI in the test on CCRF-CEM leukemia, in the test on OVCAR-5 ovarian and in the test with SNB-19 CNS was more than 100 µM throughout.

For the compound `COc1ccc(C[C@H]2COC(=O)[C@@H]2Cc2ccccc2)cc1OC`, the TGI in the test on CCRF-CEM leukemia, in the test with DU-145 prostate, in the test on EKVX NSCLC, in the test on OVCAR-5 ovarian and with SNB-19 CNS was more than 100 µM each time.

As to `COc1ccc2c3c([nH]c2c1)-c1nc2ccccc2c(=O)n1CC3`, the GI50 in the test with CCRF-CEM leukemia was more than 25 µM. Besides, the TGI in the test on CCRF-CEM leukemia, in the test on EKVX NSCLC, in the test with OVCAR-5 ovarian, with SF-539 CNS and with SNB-19 CNS was more than 25 µM each time.

On to `Cn1c(O)c(/C=N/c2ncccn2)c(=O)[nH]c1=O`, for which the TGI in the test on DU-145 prostate, with EKVX NSCLC, with OVCAR-5 ovarian, with SF-539 CNS and with SNB-19 CNS was more than 100 µM throughout.

Take `C=C(C)[C@@H]1CC[C@]2(C(=O)OC3OC(COC4OC(CO)C(OC5OC(C)C(O)C(O)C5O)C(O)C4O)C(O)C(O)C3O)CC[C@]3(C)[C@H](CC[C@@H]4[C@@]5(C)CC[C@H](O)[C@@](C)(CO)[C@@H]5CC[C@]43C)[C@@H]12` (some centres not stated): the TGI in the test on DU-145 prostate is more than 10 µM; with EKVX NSCLC, more than 10 µM; in the test with OVCAR-5 ovarian, more than 10 µM; in the test on SF-539 CNS it was more than 7.72 µM; in the test with SNB-19 CNS it was more than 10 µM.

For the compound `Nc1cc2ncnc(Nc3cccc(Br)c3)c2cn1`, the TGI in the test with CCRF-CEM leukemia, with OVCAR-5 ovarian, with SF-539 CNS and with SNB-19 CNS was more than 100 µM each time.

Take `O=c1oc2ccccc2c(O)c1C(c1ccc(O)cc1)c1c(O)c2ccccc2oc1=O`: the TGI with CCRF-CEM leukemia, in the test with DU-145 prostate, in the test on EKVX NSCLC and in the test on SNB-19 CNS was more than 100 µM throughout.
